# In US8415486B2, “IAP inhibitors” (TetraLogic Pharmaceuticals Corp., priority 2009, dated 2013):
# Legend:
# [1] = target: T1, XIAP BIR-3 (Homo sapiens, UniProt P98170); test: Fluorescence polarization binding to XIAP BIR-3 with labeled peptide AbuRPF-K(5-Fam)-NH2; details: 40 nM BIR3, 5 nM labeled peptide, reported as ranges
# T1 construct: 40 nM of the respective IAP BIR3
# Description: (§1) The binding affinities of the compounds are reported as a KD value (μM). Briefly, various concentrations of test peptides were mixed with 5 nM of the fluorescently labeled peptide (i.e., a mutated N-terminal Smac peptide—AbuRPF-K(5-Fam)-NH2) and 40 nM of the respective IAP BIR3 for 15 min at RT in […] of 0.1M Potassium Phosphate buffer, pH 7.5 containing 100 mg/ml bovine g-globulin. Following incubation, the polarization values (mP) were measured on a Victor2V (available from PerkinElmer Life Sciences) using a 485 nm excitation filter and a 520 nm emission filter. The reported binding affinities (KD values) are supplied as ranges (A=<0.1 μM, B=0.1 μM to 1 μM, C=>1 μM to 10 μM, D=>10 μM).
# [2] = target: T2, cIAP-1 BIR-3 (Homo sapiens, UniProt Q13490); test: Fluorescence polarization binding to cIAP-1 BIR-3 with labeled peptide AbuRPF-K(5-Fam)-NH2; details: 40 nM BIR3, 5 nM labeled peptide, reported as ranges, read-out: KD (c-IAP-1 BIR3)
# T2 construct: 40 nM of the respective IAP BIR3
# Description: as §1
# [3] = tested on: ovarian cancer cell line, SK-OV-3; test: SK-OV-3 cell growth inhibition (MTT, 72 hrs); assay type: cell-based; details: Homo sapiens, concentration giving 50% cell survival, reported as ranges
# Description: Compounds of the invention also were tested for their ability to inhibit the growth of an ovarian cancer cell line, SK-OV-3. A known assay previously used for measuring cell growth (as described in Hansen, M. B., Nielsen, S. E., and Berg, K. (1989) J. Immunol. Methods 119, 203-210 and incorporated herein by reference in its entirety) was used. Briefly, SK-OV-3 cells are seeded in 96-well plates in McCoy's medium containing 10% fetal bovine serum albumin (5,000 per well) and incubated overnight at 37° C. The next day, test compounds are added at various concentrations (0.003-10 μM) and the plates are incubated at 37° C. for an additional 72 hrs. This incubation time was considered to be optimal for measuring inhibitory effects of the different compounds tested. 50 microliters of 5 mg/mL MTT reagent is added to each well and the plates are incubated at 37° C. for another three (3) hours. At the end of the three (3) hour incubation period, 50 microliters of DMSO is added to each well to dissolve cells and the optical density (OD) of the wells is measured with a microplate reader (Victor^2 1420, Wallac, Finland) at 535 nm. Cell survival (CS) was calculated using the following equation: CS=(OD treated well/mean OD control wells)×100%.
# The CC50 (reported in the following tables), is defined as the drug concentration that results in 50% cell survival (CS), and is derived by calculating the point where the dose-response curve crosses the 50% CS point using GraphPad Prism. The reported CC50 values are supplied as ranges (A=<0.1 μM, B=0.1 μM to 1 μM, C=>1 μM to 10 μM, D=>10 μM).
# T1 sequence (P98170 241-356 limits assumed): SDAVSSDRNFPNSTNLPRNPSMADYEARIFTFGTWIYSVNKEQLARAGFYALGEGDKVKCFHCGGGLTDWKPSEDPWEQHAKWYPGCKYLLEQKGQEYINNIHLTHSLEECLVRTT
# T2 sequence (Q13490 253-363 limits assumed): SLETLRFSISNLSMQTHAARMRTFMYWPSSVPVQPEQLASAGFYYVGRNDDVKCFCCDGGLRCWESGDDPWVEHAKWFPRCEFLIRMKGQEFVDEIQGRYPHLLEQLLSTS
Kd [1] [µM],Kd [2] [µM],Structure (SMILES),CC50 [3] [µM]
< 0.1,< 0.1,"CN[C@@H](C)C(=O)N[C@H](C(=O)N1CC[C@@H]2[C@H]1[C@@H](Oc1ccc(F)c(F)c1)CN2S(=O)(=O)CC(C)C)C(C)(C)C [Example 20, N-{1-[6-(3,4-Difluoro-phenoxy)-4-(2-methyl-propane-1-sulfonyl)-hexahydro-pyrrolo[3,2-b]pyrrole-1-carbonyl]-2,2-dimethyl-propyl}-2-methylamino-propionamide]",< 0.1
0.1 to 1,< 0.1,"CN[C@@H](C)C(=O)N[C@H](C(=O)N1CC[C@@H]2[C@H]1[C@@H](Oc1ccc(F)c(F)c1)CN2C(C)=O)C(C)(C)C [Example 21, N-{1-[4-Acetyl-6-(3,4-difluoro-phenoxy)-hexahydro-pyrrolo[3,2-b]pyrrole-1-carbonyl]-2,2-dimethyl-propyl}-2-methylamino-propionamide]",< 0.1
< 0.1,< 0.1,"CN[C@@H](C)C(=O)N[C@H](C(=O)N1CC[C@@H]2[C@H]1[C@@H](Oc1ccc(F)c(F)c1)CN2C(=O)CC(C)C)C(C)(C)C [Example 22, N-{1-[6-(3,4-Difluoro-phenoxy)-4-(3-methyl-butyryl)-hexahydro-pyrrolo[3,2-b]pyrrole-1-carbonyl]-2,2-dimethyl-propyl}-2-methylamino-propionamide]",< 0.1
< 0.1,< 0.1,"CNC(=O)N1C[C@H](Oc2ccc(F)c(F)c2)[C@@H]2[C@H]1CCN2C(=O)[C@@H](NC(=O)[C@H](C)NC)C(C)(C)C [Example 23, 3-(3,4-Difluoro-phenoxy)-4-[3,3-dimethyl-2-(2-methylamino-propionylamino)-butyryl]-hexahydro-pyrrolo[3,2-b]pyrrole-1-carboxylic acid methylamide]",< 0.1
< 0.1,< 0.1,"CN[C@@H](C)C(=O)N[C@H](C(=O)N1CC[C@@H]2[C@H]1[C@@H](Oc1ccc(F)c(F)c1)CN2C(=O)NC(C)C)C(C)(C)C [Example 24, 3-(3,4-Difluoro-phenoxy)-4-[3,3-dimethyl-2-(2-methylamino-propionylamino)-butyryl]-hexahydro-pyrrolo[3,2-b]pyrrole-1-carboxylic acid isopropylamide]",< 0.1
< 0.1,< 0.1,"CN[C@@H](C)C(=O)N[C@H](C(=O)N1CC[C@@H]2[C@H]1[C@@H](Oc1ccc(F)c(F)c1)CN2C(=O)N(C)C)C(C)(C)C [Example 25, 3-(3,4-Difluoro-phenoxy)-4-[3,3-dimethyl-2-(2-methylamino-propionylamino)-butyryl]-hexahydro-pyrrolo[3,2-b]pyrrole-1-carboxylic acid dimethylamide]",< 0.1
< 0.1,< 0.1,"CNC(=O)N1C[C@H](Oc2ccc(F)cc2)[C@@H]2[C@H]1CCN2C(=O)[C@@H](NC(=O)[C@H](C)NC)C1CCCCC1 [Example 26, 4-[2-Cyclohexyl-2-(2-methylamino-propionylamino)-acetyl]-3-(4-fluoro-phenoxy)-hexahydro-pyrrolo[3,2-b]pyrrole-1-carboxylic acid methylamide]",< 0.1
< 0.1,< 0.1,"CNC(=O)N1C[C@H](Oc2ccc(F)cc2)[C@@H]2[C@H]1CCN2C(=O)[C@@H](NC(=O)[C@H](C)NC)C(C)(C)C [Example 27, 4-[3,3-Dimethyl-2-(2-methylamino-propionylamino)-butyryl]-3-(4-fluoro-phenoxy)-hexahydro-pyrrolo[3,2-b]pyrrole-1-carboxylic acid methylamide]",< 0.1
< 0.1,< 0.1,"CN[C@@H](C)C(=O)N[C@H](C(=O)N1CC[C@@H]2[C@H]1[C@@H](Oc1ccc(F)cc1)CN2C(=O)NC(C)C)C1CCCCC1 [Example 28, 4-[2-Cyclohexyl-2-(2-methylamino-propionylamino)-acetyl]-3-(4-fluoro-phenoxy)-hexahydro-pyrrolo[3,2-b]pyrrole-1-carboxylic acid isopropylamide]",< 0.1
< 0.1,< 0.1,"CN[C@@H](C)C(=O)N[C@H](C(=O)N1CC[C@@H]2[C@H]1[C@@H](Oc1ccc(F)cc1)CN2C(=O)NC(C)C)C(C)(C)C [Example 29, 4-[3,3-Dimethyl-2-(2-methylamino-propionylamino)-butyryl]-3-(4-fluoro-phenoxy)-hexahydro-pyrrolo[3,2-b]pyrrole-1-carboxylic acid isopropylamide]",< 0.1
< 0.1,< 0.1,"CN[C@@H](C)C(=O)N[C@H](C(=O)N1CC[C@@H]2[C@H]1[C@@H](OCc1ccc(F)cc1)CN2C(=O)NCc1ccccc1)C(C)(C)C [Example 30, 4-[3,3-Dimethyl-2-(2-methylamino-propionylamino)-butyryl]-3-(4-fluoro-benzyloxy)-hexahydro-pyrrolo[3,2-b]pyrrole-1-carboxylic acid benzylamide]",< 0.1
0.1 to 1,< 0.1,"CN[C@@H](C)C(=O)N[C@H](C(=O)N1CC[C@H]2NC[C@H](OCc3ccccc3)[C@H]21)C1CCCCC1 [Example 31, (S)—N—((S)-2-((3aR,6S,6aS)-6-(benzyloxy)hexahydropyrrolo[3,2-b]pyrrol-1(2H)-yl)-1-cyclohexyl-2-oxoethyl)-2-(methylamino)propanamide]",0.1 to 1
< 0.1,< 0.1,"CN[C@@H](CF)C(=O)N[C@H](C(=O)N1CC[C@@H]2[C@H]1[C@@H](OCc1ccccc1)CN2C(=O)OC(C)(C)C)C1CCCCC1 [Example 32, 3-Benzyloxy-4-[2-cyclohexyl-2-(3-fluoro-2-methylamino-propionylamino)-acetyl]-hexahydro-pyrrolo[3,2-b]pyrrole-1-carboxylic acid tert-butyl ester]",0.1 to 1
0.1 to 1,< 0.1,"CN[C@@H](CF)C(=O)N[C@H](C(=O)N1CC[C@H]2NC[C@H](OCc3ccccc3)[C@H]21)C1CCCCC1 [Example 33, N-[2-(6-Benzyloxy-hexahydro-pyrrolo[3,2-b]pyrrol-1-yl)-1-cyclohexyl-2-oxo-ethyl]-3-fluoro-2-methylamino-propionamide]",> 10
< 0.1,< 0.1,"CN[C@@H](C)C(=O)N[C@H](C(=O)N1CC[C@@H]2[C@H]1[C@@H](OCc1ccc(F)cc1)CN2C(=O)OC(C)(C)C)C(C)(C)C [Example 34, 4-[3,3-Dimethyl-2-(2-methylamino-propionylamino)-butyryl]-3-(4-fluoro-benzyloxy)-hexahydro-pyrrolo[3,2-b]pyrrole-1-carboxylic acid tert-butyl ester]",< 0.1
0.1 to 1,< 0.1,"CN[C@@H](C)C(=O)N[C@H](C(=O)N1CC[C@H]2NC[C@H](OCc3ccc(F)cc3)[C@H]21)C(C)(C)C [Example 35, N-{1-[6-(4-Fluoro-benzyloxy)-hexahydro-pyrrolo[3,2-b]pyrrole-1-carbonyl]-2,2-dimethyl-propyl}-2-methylamino-propionamide ester]",< 0.1
0.1 to 1,< 0.1,"CNC(=O)N1C[C@H](OCc2ccc(F)cc2)[C@@H]2[C@H]1CCN2C(=O)[C@@H](NC(=O)[C@H](C)NC)C(C)(C)C [Example 36, 4-[3,3-Dimethyl-2-(2-methylamino-propionylamino)-butyryl]-3-(4-fluoro-benzyloxy)-hexahydro-pyrrolo[3,2-b]pyrrole-1-carboxylic acid methylamide]",< 0.1
< 0.1,< 0.1,"CN[C@@H](C)C(=O)N[C@H](C(=O)N1CC[C@@H]2[C@H]1[C@@H](OCc1ccc(F)cc1)CN2C(=O)NC(C)C)C(C)(C)C [Example 37, 4-[3,3-Dimethyl-2-(2-methylamino-propionylamino)-butyryl]-3-(4-fluoro-benzyloxy)-hexahydro-pyrrolo[3,2-b]pyrrole-1-carboxylic acid isopropylamide]",< 0.1
